Measured values reported in patent US20090215895A1, “Therapeutic and carrier molecules” (PEPLIN BIOLIPIDS PTY LTD, priority 2004, published 2009).
“Also recorded” adds a separate entry of the source.

What was measured:
neutrophil NADPH oxidase = experiment: Neutrophil respiratory burst (NADPH oxidase activation, chemiluminescence); assay type: cell-based, human; details: 20 μM, 10 min, lucigenin-dependent chemiluminescence
Description: The structure of PT2 is shown in (c) above. In this screening assay, neutrophils were prepared from the blood of healthy volunteers. Freshly collected blood was layered onto a Hypaque-Ficoll medium of density 1.114 and centrifuged at 400 g for 30 mins at room temperature. After centrifugation, the leukocytes resolved into two distinct bands, with neutrophils being present in the second band (Ferrante and Thong, J. Immun. Methods 48:81-85, 1982).
Activation of the neutrophil NADPH oxidase was measured by lucigenin-dependent chemiluminescence following a 10 min incubation of PT2 (20 μM, final concentration) with 1×10^6 neutrophils from different donors (Power et al, J. Immunol. 159:2952-2959, 1997). Arachidonic acid (20:4, n-6) was used as a positive stimulator of the oxidase
Neutrophil respiratory burst was determined as previously described (Li et al, J. Clin. Invest. 97:1605-1609, 1996).

HUVEC = experiment: Agonist-enhanced neutrophil adherence to HUVEC; assay type: cell-based, human; details: 20 μmol/l, 1 hr pre-treatment, TNF 4 hr
Description: FIG. 11 is a representation showing effect of β-oxa; β-thia and natural PUFA on TNF-enhanced neutrophil adherence to HUVEC. HUVEC were pre-treated with the fatty acids (20 μmol/l) for 60 min at 37° C. before being stimulated with TNF (125 U/200 μl medium) for 4 hr at 37° C. The cells were then co-incubated with neutrophils (5×10^5 cells/well) at 37° C. for 30 min and the degree of neutrophil adherence quantitated. The results are expressed as % of control and represent the mean±SEM of three separate experiments each performed in triplicate. * p<0.05, ***p<0.001, for significant differences between pre-treatment with fatty acid and control (one-way analysis of variance followed by the Dunnett test for multiple comparisons).
Adhesion of neutrophils, prepared by the rapid-single-step method (Ferrante et al, J. Immun. Methods 36:109-117, 1980), to HUVEC isolated from umbilical cords was carried out essentially as described (Huang et al, 1997 supra).
The magnitude of the suppressive effect of -MP3 was dependent on-pre-treatment time and concentration with significant effects observed with a pre-treatment time of 1 hr and a concentration of ≧5 μmol/l.

E-selectin = experiment: Adhesion molecule expression on HUVEC (ELISA, mRNA slot blot); assay type: cell-based, human; details: 20 μmol/l, 60 min pre-treatment
Description: (§1) FIG. 13 is a representation showing effect of MP3 (β-oxa-23:4n-6) and 20:4n-6 on time-related changes in TNF-α-induced E-selectin, ICAM-1 and VCAM-1 expression on HUVEC. HUVEC were pre-treated with 20 μmol/l β-oxa-23:4n-6 (closed triangles), 20 μmol/l 20:4n-6 (open squares), or DPC (control) for 60 min and then further incubated with TNF-α (125 U/200 μl medium) for up to 24 hr. The expression of E-selectin, ICAM-1 and VCAM-1 adhesion molecules was determined by ELISA. The results are expressed as % of control and represent the mean±SEM of three separate experiments each performed in triplicate. * p<0.05, **p<0.01, ***p<0.001, for significant differences between pre-treatment with fatty acid and corresponding control at a particular time point (one-way analysis of variance followed by the Dunnett test for multiple comparisons). Inset: The effect of β-oxa-23:4n-6 on TNF-α-induced expression of E-selectin mRNA in HUVEC. HUVEC were pre-incubated with β-oxa-23:4n-6 (20 μmol/l) or DPC (control) in 1 ml of medium at 37° C. for 60 min. After the addition of TNF-α, the cells were further incubated at 37° C. for 2 hr. E-selectin mRNA expression was then determined and the results expressed as relative %. Results are the mean±SEM of three separate experiments each performed in quadruplicate. *p<0.0001, for significant differences between pre-treatment with β-oxa-23:4n-6, and control (two-tailed Student's t-test for unpaired data).
(§2) HUVEC were stimulated with TNF, bacterial lipopolysaccharide (LPS) or PMA for 24 hr. Expression of E-selectin, ICAM-1 and VCAM-1 was determined by an enzyme-linked immunosorbent assay (ELISA) or as mRNA using a slot blot technique (Huang et al 1997 supra).

ICAM-1 = experiment: Adhesion molecule expression on HUVEC (ELISA); assay type: cell-based, human; details: 20 μmol/l, 60 min pre-treatment
Description: as §1, §2

VCAM-1 = experiment: Adhesion molecule expression on HUVEC (ELISA); assay type: cell-based, human; details: 20 μmol/l, 60 min pre-treatment
Description: as §1, §2

PKC isozyme α = target: T1, PKC isozyme α (Homo sapiens, UniProt P17252); experiment: PMA-induced PKC translocation in HL-60 cells (Western blot); assay type: cell-based; parameters: key: +++: strong inhibition of PKC activation; −: no inhibition of PKC activation; details: 20 μM, 60 min
T1 construct: endogenous in cells; host or cells: HL-60
Description: (§3) The effects of nitroanalogs of PUFAs on PKC activation were determined. Lx compounds at a concentration of 20 μM were incubated with the HL-60 cell line (final condition 10^6 cells/ml) for 60 min. PKC activation was then attempted to be induced by PMA. PKC enzyme translocation was quantitated by Western blot.

PKC isozyme β2 = target: T2, PKC isozyme β2 (Homo sapiens, UniProt P05771); experiment: as above; assay type: cell-based; parameters: key: +++: strong inhibition of PKC activation; −: no inhibition of PKC activation; details: 20 μM, 60 min
T2 construct: endogenous in cells; host or cells: HL-60
T2 sequence (P05771 1-673 isoform P05771-2): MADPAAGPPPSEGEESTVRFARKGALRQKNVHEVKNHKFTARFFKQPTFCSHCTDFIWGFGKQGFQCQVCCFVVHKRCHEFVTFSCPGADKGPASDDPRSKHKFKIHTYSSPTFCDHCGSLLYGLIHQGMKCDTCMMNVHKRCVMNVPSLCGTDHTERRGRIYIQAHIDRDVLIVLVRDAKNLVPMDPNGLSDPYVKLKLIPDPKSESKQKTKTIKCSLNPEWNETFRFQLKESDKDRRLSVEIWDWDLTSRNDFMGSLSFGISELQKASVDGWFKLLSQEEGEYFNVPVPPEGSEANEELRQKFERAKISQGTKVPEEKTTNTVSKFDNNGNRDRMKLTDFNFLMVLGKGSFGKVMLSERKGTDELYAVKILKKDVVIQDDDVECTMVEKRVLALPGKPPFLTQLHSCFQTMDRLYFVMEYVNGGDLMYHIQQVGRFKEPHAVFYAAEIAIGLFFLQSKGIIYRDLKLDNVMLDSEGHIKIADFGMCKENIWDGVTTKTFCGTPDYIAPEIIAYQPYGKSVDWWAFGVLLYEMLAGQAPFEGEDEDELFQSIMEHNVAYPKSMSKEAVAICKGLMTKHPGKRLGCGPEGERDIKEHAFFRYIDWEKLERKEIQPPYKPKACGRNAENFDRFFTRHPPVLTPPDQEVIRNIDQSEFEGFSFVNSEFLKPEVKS
Description: as §3

PKC isozyme δ = target: T3, PKC isozyme δ (Homo sapiens, UniProt Q05655); experiment: as above; assay type: cell-based; parameters: key: +++: strong inhibition of PKC activation; −: no inhibition of PKC activation; details: 20 μM, 60 min
T3 construct: endogenous in cells; host or cells: HL-60
T3 sequence (Q05655 whole entry): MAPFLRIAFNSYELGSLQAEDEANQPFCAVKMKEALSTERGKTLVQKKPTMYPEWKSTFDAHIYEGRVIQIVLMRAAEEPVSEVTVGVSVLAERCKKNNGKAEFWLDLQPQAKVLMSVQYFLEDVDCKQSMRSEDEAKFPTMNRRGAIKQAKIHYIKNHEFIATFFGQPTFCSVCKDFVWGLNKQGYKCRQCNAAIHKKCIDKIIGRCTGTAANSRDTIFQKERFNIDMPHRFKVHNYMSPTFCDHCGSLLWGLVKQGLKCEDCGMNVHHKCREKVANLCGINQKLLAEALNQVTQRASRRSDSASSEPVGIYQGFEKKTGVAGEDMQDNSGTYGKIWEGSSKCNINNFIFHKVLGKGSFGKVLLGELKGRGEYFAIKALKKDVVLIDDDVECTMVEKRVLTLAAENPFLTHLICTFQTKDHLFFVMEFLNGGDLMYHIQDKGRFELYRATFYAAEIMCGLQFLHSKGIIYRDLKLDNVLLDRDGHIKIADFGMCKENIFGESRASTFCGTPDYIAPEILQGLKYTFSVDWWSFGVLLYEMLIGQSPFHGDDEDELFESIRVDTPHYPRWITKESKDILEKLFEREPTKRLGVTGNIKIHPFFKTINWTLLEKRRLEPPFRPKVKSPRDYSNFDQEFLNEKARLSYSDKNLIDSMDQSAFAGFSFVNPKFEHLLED
Description: as §3

PKC isozyme ε = target: T4, PKC isozyme ε (Homo sapiens, UniProt Q02156); experiment: as above; assay type: cell-based; parameters: key: +++: strong inhibition of PKC activation; −: no inhibition of PKC activation; details: 20 μM, 60 min
T4 construct: endogenous in cells; host or cells: HL-60
T4 sequence (Q02156 1-737): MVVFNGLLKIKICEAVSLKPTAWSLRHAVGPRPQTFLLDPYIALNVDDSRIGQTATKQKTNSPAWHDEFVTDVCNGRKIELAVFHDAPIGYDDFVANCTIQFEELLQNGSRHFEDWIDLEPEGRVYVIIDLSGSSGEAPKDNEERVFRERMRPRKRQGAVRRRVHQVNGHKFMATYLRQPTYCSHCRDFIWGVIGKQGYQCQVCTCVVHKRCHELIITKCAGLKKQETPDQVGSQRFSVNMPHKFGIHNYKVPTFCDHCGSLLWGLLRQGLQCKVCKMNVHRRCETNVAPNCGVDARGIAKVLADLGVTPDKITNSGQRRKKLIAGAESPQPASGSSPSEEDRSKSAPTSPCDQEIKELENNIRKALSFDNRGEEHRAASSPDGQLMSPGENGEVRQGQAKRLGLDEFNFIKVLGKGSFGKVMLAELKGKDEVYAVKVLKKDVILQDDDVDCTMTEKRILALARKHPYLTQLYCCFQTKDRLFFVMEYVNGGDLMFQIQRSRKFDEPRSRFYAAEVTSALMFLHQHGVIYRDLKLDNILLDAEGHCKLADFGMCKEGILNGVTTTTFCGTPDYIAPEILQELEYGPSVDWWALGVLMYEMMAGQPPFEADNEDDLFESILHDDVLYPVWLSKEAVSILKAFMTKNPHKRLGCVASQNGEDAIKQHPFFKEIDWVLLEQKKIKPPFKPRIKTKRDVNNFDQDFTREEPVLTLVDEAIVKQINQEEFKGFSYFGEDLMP
Description: as §3

cancer cells = experiment: Killing of cancer cells; assay type: cell-based
IκBα = experiment: TNF-induced degradation of IκBα in HUVEC (Western blot); assay type: cell-based; details: Homo sapiens, 20 μmol/l, 30 min pre-treatment, TNF 10 min
Description: FIG. 17 is a representation showing (A) the effect of MP3 (β-oxa 23:4n-6) and DHA on TNF-induced degradation of IκBα in HUVEC. Cells were pre-treated with the fatty acids (20 μmol/l) for 30 min and then stimulated with TNF (125 U/ml) for 10 min. After cell lysis the proteins were analyzed by Western blots using anti-IκBα antibodies. (B) The effects of β-oxa-23:4n-6 on TNF-induced activation of transcriptional factor, NFκB in HUVEC. Cells were pre-treated with β-oxa-23:4n-6 (20 μmol/l) for 30 min and then stimulated with TNF for 2 hr. After cell lysis, nuclear fractions were prepared, nuclear proteins separated by SDS PAGE (12% w/v gel), transferred to nitrocellulose and probed with an anti-NFκB p65 antibody (Santa Cruz). […] (C) The effect of β-oxa 23:4n-6 on TNF-stimulated activation of IKK. Cells were pre-treated with β-oxa 23:4n-6 (20 μmol/l) for 30 min and then stimulated with TNF for 5 min. After cell lysis IKK was immunoprecipitated with anti-IKKα antibody and kinase activity determined. […]
Proteins (50 μg) were separated by SDS PAGE (12% w/v gel), transferred to nitrocellulose and probed with an anti-NFκB p65 or anti-IκBα antibody (Santa Cruz Biotech, Santa Cruz, Calif.). Immunocomplexes were detected by enhanced chemiluminescence (Hii et al, 1998 supra).

[1] = Formalin-induced pain test (hind paw licking time); assay type: in vivo; details: for % inhibition of pain response, Phase I (0-5 mins) / % inhibition of pain response, Phase II (15-20 mins): 30 min prior to formalin, mean of 5 animals
Description: (§4) Investigations of the effects of PT2 on pain induced by phenylquinolic acid (PQ writhing) and formalin have been made. In both the PQ writhing test (FIG. 3) and the formalin algesia test (FIG. 4), PT2 administered by intraperitoneal inoculation reduced pain and compared favourably with pain reduction by aspirin (oral, 100 mg/kg). In these tests, the EPUFA was administered 30 min before the pain stimulus and effects recorded over the following 20 min.
Investigations of PT2 in the formalin-induced analgesia model looking specifically at the biphasic response have also been undertaken and are shown in Table 1. It is well documented that in this model, aspirin suppresses only pain related to the inflammatory process (15-20 mins post-administration of formalin), while morphine suppresses pain in both phases of the response (0-5 min and 15-20 min).
Compounds were administered intraperationedly (ip) 30 min prior to the administration of formalin (0.02 ml, 1% solution) via subplantar injection into the right hind paw. Reduction of the induced hind paw licking time recorded during the following 0-5 min period (Phase I response) or 15-20 min period (Phase II response) was determined. The data in Table 1 are the mean responses of 5 animals in each group.

[2] = PQ (phenylquinolic acid) writhing test; assay type: in vivo; details: intraperitoneal, 30 min before pain stimulus
Description: as §4

[3] = In vitro assays (not specified)

CCCCC/C=C\C/C=C\C/C=C\C/C=C\CCCC(=O)O [arachidonic acid, reference compound]
Stimulation of the neutrophil respiratory burst (neutrophil NADPH oxidase): able to elicit a strong respiratory burst | Inhibition of TNF-α-enhanced neutrophil adhesion to HUVEC (HUVEC): no significant effect | Suppression of TNF-α-induced E-selectin expression on HUVEC (E-selectin): no significant effect | Suppression of TNF-α-induced ICAM-1 expression on HUVEC (ICAM-1): no significant effect | Suppression of TNF-α-induced VCAM-1 expression on HUVEC (VCAM-1): no significant effect

CCCCCCCCCCCCCCCCCC(CCC(=O)O)(CCC(=O)O)[N+](=O)[O-] [Lx8]
Inhibition of PKC activation, isozyme α (PKC isozyme α): +++ | Inhibition of PKC activation, isozyme β2 (PKC isozyme β2): +++ | Inhibition of PKC activation, isozyme δ (PKC isozyme δ): +++ | Inhibition of PKC activation, isozyme ε (PKC isozyme ε): +++ | Killing of cancer cells (cancer cells): kills cells very poorly

CCCCC/C=C\C/C=C\C/C=C\C/C=C\CCCC(CCC(=O)O)(CCC(=O)O)[N+](=O)[O-] [Lx9]
Inhibition of PKC activation, isozyme α (PKC isozyme α): − | Inhibition of PKC activation, isozyme β2 (PKC isozyme β2): +++ | Killing of cancer cells (cancer cells): strong in killing cancer cells

CC/C=C\C/C=C\C/C=C\C/C=C\C/C=C\C/C=C\CCC(=O)O [22:6n-3, docosahexaenoic acid, reference compound]
Inhibition of TNF-α-enhanced neutrophil adhesion to HUVEC (HUVEC): no significant effect | inhibition at 20 µM (IκBα): < 50%

CCCCC/C=C\C/C=C\C/C=C\C/C=C\CCCC(=O)NC(CC(=O)O)C(=O)O (centres unmarked) [PT2]
% inhibition of pain response, Phase I (0-5 mins) ([1]; 30 mg/kg ip): 0% | % inhibition of pain response, Phase II (15-20 mins) ([1]; 30 mg/kg ip): 41% | % inhibition of pain response, Phase I (0-5 mins) ([1]; 100 mg/kg ip): 30% | % inhibition of pain response, Phase II (15-20 mins) ([1]; 100 mg/kg ip): 97% | Pain reduction in formalin test ([1]; intraperitoneal, 30 min before pain stimulus): reduced pain; also recorded: acts similarly to aspirin in having its major effect on the later phase of the pain response | Pain reduction in PQ writhing test [2]: reduced pain | Stimulation of the neutrophil respiratory burst (neutrophil NADPH oxidase): lacks the ability to stimulate the neutrophil respiratory burst

β-oxa-23:0 [MP1]
Biological activity in in vitro assays [3]: biologically inactive
